Where “and” joins values, the source holds several entries; their conditions need not be identical. Equal entries are not always repeated. Where two headings read alike, the source gives them in different places.
Biological target: T1, PAF receptor (specific receptor binding site on rabbit platelet plasma membranes) (Oryctolagus cuniculus, UniProt G1TEI7)
T1 construct: 100 μg of the platelet plasma membrane suspension; from tissue; host or cells: rabbit platelet plasma membranes
Assay: inhibition of 3H-PAF binding to rabbit platelet plasma membrane
Settings: for IC50: 3H-PAF, pH 7.5, 0° C.
Procedure: They inhibit in vitro PAF-induced functions in both the cellular and tissue levels by changing the PAF binding to its specific receptor site. This ability to inhibit the PAF binding to its specific receptor binding site on rabbit platelet plasma membranes was measured by an assay recently developed by us.
The inhibition of H^3 -PAF binding to the rabbit platelet plasma membrane by a PAF antagonist of Formula (I) was determined by isotopic labeling and filtration techniques. Generally, a series of Tris-buffered solutions of the selected antagonist at predetermined concentrations were prepared. Each of these solutions contains 1 pmole of ^3 H-PAF, a known amount of the test antagonist, and a sufficient amount of the pH 7.5 Tris-buffer solution (10 mM Tris, 0.25% bovine serum albumin, and 150 mM NaCl per ml water) to make the final volume of 1 ml. After adding into a set of test tubes each with 100 μg of the platelet plasma membrane suspension (S. B. Hwang, et al., Biochemistry, Vol. 22, pp. 4756-4763, 1983) and one of the Tris-buffer solutions described above, the resulting mixture in each test tube was incubated at 0° C. for about one hour or until the reaction was complete. Two control samples, one of which (C1) contains all the ingredients described above except the antagonist and the other (C 2) contains C1 plus a 1000-fold excess of unlabeled PAF, were also prepared and incubated simultaneously with the test samples. After the incubation was completed, the contents of each test tube were filtered under vacuo through a Whatman GF/C fiberglass filter and the residue washed rapidly several times with a total of 20 ml cold (0°-5° C.) Tris-buffer solution. Each washed residue was then suspended in 10 ml scintillation solution (Aquasol 2, New England Nuclear, Conn.) and the radioactivity was counted in a Packard Tri-Carb 460CD Liquid Scintillation System. Defining the counts from a test sample as "Total binding with antagonist"; the counts from the control sample C1, as "Total binding C1 "; and the counts from the control sample C2 as "non-specific binding C2 ", the percent inhibition of each test antagonist can be determined by the following equation: [formula]

[1] = Table (A), at 300 nM, read-out: PAF Receptor Binding Inhibition, Percent Inhibition

T1 sequence (G1TEI7 1-342): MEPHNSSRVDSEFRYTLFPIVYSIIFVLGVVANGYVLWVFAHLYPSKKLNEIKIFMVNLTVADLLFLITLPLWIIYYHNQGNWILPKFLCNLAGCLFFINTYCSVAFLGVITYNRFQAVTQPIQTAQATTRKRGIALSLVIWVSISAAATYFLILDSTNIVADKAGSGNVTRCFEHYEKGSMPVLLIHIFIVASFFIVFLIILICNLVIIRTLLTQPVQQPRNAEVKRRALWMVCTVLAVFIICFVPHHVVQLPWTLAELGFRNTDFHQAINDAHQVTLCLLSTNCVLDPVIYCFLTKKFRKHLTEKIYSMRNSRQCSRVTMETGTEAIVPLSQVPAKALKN

Row | SMILES | IC50 (Table (A)) [nM] | also measured
1 | C#CCOC1[C@H](c2cc(OC)c(OC)c(OC)c2)CC[C@H]1c1cc(OC)c(OC)c(OC)c1 (relative stereo) | 1 | 
2 | CCOC(=O)COC1[C@H](c2cc(OC)c(OC)c(OC)c2)CC[C@H]1c1cc(OC)c(OC)c(OC)c1 (relative stereo) | 3.6 | 
3 | C=CCOC1[C@H](c2cc(OC)c(OC)c(OC)c2)CC[C@H]1c1cc(OC)c(OC)c(OC)c1 (relative stereo) | 4.8 | 
4 | COc1cc([C@@H]2CC[C@@H](c3cc(OC)c(OC)c(OC)c3)C2OCC2CC2)cc(OC)c1OC (relative stereo) | 19 | 
5 | CCOC1[C@H](c2cc(OC)c(OC)c(OC)c2)CC[C@H]1c1cc(OC)c(OC)c(OC)c1 (relative stereo) | 30 | 
6 | CCCOC1[C@H](c2cc(OC)c(OC)c(OC)c2)CC[C@H]1c1cc(OC)c(OC)c(OC)c1 (relative stereo) | 30 | 
7 | COCCOC1[C@H](c2cc(OC)c(OC)c(OC)c2)CC[C@H]1c1cc(OC)c(OC)c(OC)c1 (relative stereo) | 100 | 
8 | COc1cc([C@@H]2CC[C@@H](c3cc(OC)c(OC)c(OC)c3)C2OCCN(C)C)cc(OC)c1OC (relative stereo) | 100 | 
9 | COc1cc([C@@H]2CC[C@@H](c3cc(OC)c(OC)c(OC)c3)C2OCC(=O)N(C)C)cc(OC)c1OC (relative stereo) |  | inhibition at 0.3 µM [1]: 23%
10 | COc1cc([C@@H]2CC[C@@H](c3cc(OC)c(OC)c(OC)c3)C2OCC(=O)O)cc(OC)c1OC (relative stereo) |  | inhibition at 0.3 µM [1]: 16%
11 | COc1cc([C@@H]2CC[C@@H](c3cc(OC)c(OC)c(OC)c3)C2)cc(OC)c1OC (relative stereo) [H, 1α,3β-bis(3,4,5-trimethoxyphenyl)cyclopentane] | 20 | 
12 | CON=C1[C@@H](c2cc(OC)c(OC)c(OC)c2)CC[C@@H]1c1cc(OC)c(OC)c(OC)c1 (relative stereo) [NOCH3, Trans-2,5-bis(3,4,5-trimethoxyphenyl)cyclopentanone-O-methyloxime] | 5 | 
13 | COc1cc([C@H]2CC[C@H](c3cc(OC)c(OC)c(OC)c3)C2=NO)cc(OC)c1OC (relative stereo) [NOH, trans-2,5-bis(3,4,5-trimethoxyphenyl)cyclopentanone oxime] | 5.8 | 
14 | COc1cc([C@@H]2CC[C@@H](c3cc(OC)c(OC)c(OC)c3)C2OCc2ccccc2)cc(OC)c1OC (relative stereo) [OCH2 C6 H5] | 48 | 
15 | COc1cc([C@@H]2CC[C@@H](c3cc(OC)c(OC)c(OC)c3)C2OC)cc(OC)c1OC (relative stereo) [OCH3, 1α-Methoxy-2α,5β-bis-(3,4,5-trimethoxyphenyl)cyclopentane] | 8.3 | 
16 | CCCOc1c(OC)cc([C@H]2CC[C@H](c3cc(OC)c(OC)c(OC)c3)[C@@H]2OC)cc1C(N)=O (relative stereo) [OCH3, (CO)NH2] |  | IC50 (Table (B)): 124 nM and 47 nM
17 | CCCOc1c(Br)cc([C@@H]2CC[C@@H](c3cc(OC)c(OC)c(OC)c3)[C@H]2OC)cc1OC (relative stereo) [OCH3, Br] |  | IC50 (Table (B)): 47 nM
18 | CCCOc1c(OC)cc([C@@H]2CC[C@@H](c3cc(OC)c(OC)c(OC)c3)[C@@H]2OC)cc1S(C)(=O)=O (relative stereo) [OCH3, SO2 CH3] |  | IC50 (Table (B)): 4.3 nM and 3.8 nM
19 | CCCOc1c(OC)cc([C@@H]2CC[C@@H](c3cc(OC)c(OC)c(OC)c3)[C@@H]2OC)cc1[S+](C)[O-] (relative stereo) [OCH3, SOCH3] |  | IC50 (Table (B)): 18 nM and 9.3 nM
20 | COc1cc([C@@H]2CC[C@@H](c3cc(OC)c(OC)c(OC)c3)C2OC(C)=O)cc(OC)c1OC (relative stereo) [OCOCH3, 1α-acetoxy-2α,5β-bis(3,4,5-trimethoxypheny)cyclopentane] | 100 | 
21 | CCCOc1c(OC)cc([C@@H]2CC[C@@H](c3cc(OC)c(OC)c(OC)c3)[C@@H]2O)cc1SC (relative stereo) [OH, SCH3] |  | PAF Receptor Binding Inhibition, Percent Inhibition (Table (B), at 300 nM, 0.3 µM): 38%; inhibition at 0.3 µM (Table (B), at 300 nM, read-out: PAF Receptor Binding Inhibition, Percent Inhibition): 23%
22 | COc1cc([C@@H]2CC[C@@H](c3cc(OC)c(OC)c(OC)c3)C2O)cc(OC)c1OC (relative stereo) [OH, trans-2,5-bis(3,4,5-trimethoxyphenyl)cyclopentanol] |  | inhibition at 0.5 µM (Table (A), at 500 nM, read-out: PAF Receptor Binding Inhibition, Percent Inhibition): 84%

Reference: patent publication US5132463A, “1,3-diaryl cyclopentanes and derivatives thereof as PAF antagonists” (Merck & Co., Inc., priority 1991, dated 1992)
